Laboratory results reported in patent publication US5179120A, “Porphycene compounds for photodynamic therapy” (Cytopharm, Inc., priority 1991, dated 1993).

How the values were obtained:
[1] = Stability towards oxygen and light (observation during preparation); assay type: physicochemical; settings: traces of oxygen in the presence of light
Description: At room temperature while stirring in the dark, 243 mg (248 μL, 1.6 mmol) DBU were added all at once to a solution of 14.8 mg (20 μmol) tetrakis(bromoethyl)porphycene in 50 mL of absolute THF. After thirty minutes, the agitator was turned off and the mixture left to stand at room temperature for two days. Subsequently the greenish-blue solution was treated with 80 mL of CH2 Cl2 and poured into 80 mL of 0.5% HCl. The organic phase was shaken out and washed with water and a 2% NaHCO3 solution, dried over Na2 SO4 and the solvent was evaporated under vacuum. The residue was chromatographed with CH2 Cl2 on aluminum oxide (Brockmann, II-III activity stage, column 2×10 cm) and the first green fraction was collected. The solvent was slowly evaporated under a slight vacuum and the remaining fine crystalline solid was washed with 3 mL of ice cooled, absolute pentane. Following drying under a high vacuum, 4.1 mg (10 μmol) tetravinylporphycene were obtained. […] The yield was 50%.
All reagents and solvents were purged of oxygen by introducing inert gas and all purification steps were carried out under subdued light, as was the reaction.

[2] = Solubility of the title compound in selected solvents; assay type: physicochemical
Excerpt: Solubility of the title compound in selected solvents: […]

| SMILES | Stability (decomposition) [1] | Solubility of the title compound in selected solvents ([2]; CH2 Cl2) | Solubility of the title compound in selected solvents ([2]; CHCl3) | Solubility of the title compound in selected solvents ([2]; DEET) | Solubility of the title compound in selected solvents ([2]; DMF) | Solubility of the title compound in selected solvents ([2]; DMSO) | Solubility of the title compound in selected solvents ([2]; EtOH) | Solubility of the title compound in selected solvents ([2]; MeOH) | Solubility of the title compound in selected solvents ([2]; THF) | Solubility of the title compound in selected solvents ([2]; Toluene) | Solubility of the title compound in selected solvents ([2]; acetone) | Solubility of the title compound in selected solvents ([2]; ethyl acetate) | Solubility of the title compound in selected solvents ([2]; hexane) | Solubility of the title compound in selected solvents ([2]; i-propanol) | Solubility of the title compound in selected solvents ([2]; water) |
| --- | --- | --- | --- | --- | --- | --- | --- | --- | --- | --- | --- | --- | --- | --- | --- |
| C=CC1=Cc2nc1ccc1[nH]c(cc1C=C)c1nc(ccc3[nH]c2cc3C=C)C(C=C)=C1 [2,7,12,17-Tetravinylporphycene] | decomposed even with traces of oxygen in the presence of light | – | – | – | – | – | – | – | – | – | – | – | – | – | – |
| COCCC1=Cc2nc1ccc1[nH]c(cc1CCOC)c1nc(c(OC(C)=O)cc3[nH]c2cc3CCOC)C(CCOC)=C1 [9-Acetoxy-2,7,12,17-tetrakis(methoxyethyl)porphycene] | – | Excellent | Excellent | Good | Good | Good | Moderate | Moderate | Excellent | Good | Good | Excellent | Insoluble | Moderate | Insoluble |
